Measured values reported in US11021444B2, “Antiviral compounds” (priority 2013, dated 2021).
Like-named read-outs stand apart in the source and are kept apart here.

Legend:
[1] = system: Respiratory Syncytial Virus (RSV) long strain; test: microbe, parasite or virus in culture; assay type: cell-based; conditions: human respiratory syncytial virus, Tables A and B list compounds by EC50 band
Outline: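 CPE-reduction format: viability measured colorimetrically with CCK-8 (450 nm, 630 nm reference) after 3-4 h, following 5-day infection at 37 °C, 5% CO2. Cells were HEp-2; inoculum 100 TCID50/well; duplicate 9-point 1/3 series starting at 100 μM or 1 μM.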

[2] = Cytotoxicity Determination (CCK-8, without addition of virus); assay type: cell-based; conditions: human, 50% cytotoxicity concentration (CC50)
Outline: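 Cytotoxicity was measured by CCK-8 after 3-4 hours at 37 °C, following 5 days of uninfected exposure at 37 °C and 5% CO2. Compounds ran as duplicate 7-point 1/2 dilutions starting at 100 μM, with 1% final DMSO. HEp-2 cells had been plated at 1,500/well the day before.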

recombinant RSV complex = recombinant RSV complex (Human respiratory syncytial virus A, UniProt P28887); test: RSV Polymerase Inhibition Assay; assay type: biochemical
Sequence of recombinant RSV complex (P28887 whole entry): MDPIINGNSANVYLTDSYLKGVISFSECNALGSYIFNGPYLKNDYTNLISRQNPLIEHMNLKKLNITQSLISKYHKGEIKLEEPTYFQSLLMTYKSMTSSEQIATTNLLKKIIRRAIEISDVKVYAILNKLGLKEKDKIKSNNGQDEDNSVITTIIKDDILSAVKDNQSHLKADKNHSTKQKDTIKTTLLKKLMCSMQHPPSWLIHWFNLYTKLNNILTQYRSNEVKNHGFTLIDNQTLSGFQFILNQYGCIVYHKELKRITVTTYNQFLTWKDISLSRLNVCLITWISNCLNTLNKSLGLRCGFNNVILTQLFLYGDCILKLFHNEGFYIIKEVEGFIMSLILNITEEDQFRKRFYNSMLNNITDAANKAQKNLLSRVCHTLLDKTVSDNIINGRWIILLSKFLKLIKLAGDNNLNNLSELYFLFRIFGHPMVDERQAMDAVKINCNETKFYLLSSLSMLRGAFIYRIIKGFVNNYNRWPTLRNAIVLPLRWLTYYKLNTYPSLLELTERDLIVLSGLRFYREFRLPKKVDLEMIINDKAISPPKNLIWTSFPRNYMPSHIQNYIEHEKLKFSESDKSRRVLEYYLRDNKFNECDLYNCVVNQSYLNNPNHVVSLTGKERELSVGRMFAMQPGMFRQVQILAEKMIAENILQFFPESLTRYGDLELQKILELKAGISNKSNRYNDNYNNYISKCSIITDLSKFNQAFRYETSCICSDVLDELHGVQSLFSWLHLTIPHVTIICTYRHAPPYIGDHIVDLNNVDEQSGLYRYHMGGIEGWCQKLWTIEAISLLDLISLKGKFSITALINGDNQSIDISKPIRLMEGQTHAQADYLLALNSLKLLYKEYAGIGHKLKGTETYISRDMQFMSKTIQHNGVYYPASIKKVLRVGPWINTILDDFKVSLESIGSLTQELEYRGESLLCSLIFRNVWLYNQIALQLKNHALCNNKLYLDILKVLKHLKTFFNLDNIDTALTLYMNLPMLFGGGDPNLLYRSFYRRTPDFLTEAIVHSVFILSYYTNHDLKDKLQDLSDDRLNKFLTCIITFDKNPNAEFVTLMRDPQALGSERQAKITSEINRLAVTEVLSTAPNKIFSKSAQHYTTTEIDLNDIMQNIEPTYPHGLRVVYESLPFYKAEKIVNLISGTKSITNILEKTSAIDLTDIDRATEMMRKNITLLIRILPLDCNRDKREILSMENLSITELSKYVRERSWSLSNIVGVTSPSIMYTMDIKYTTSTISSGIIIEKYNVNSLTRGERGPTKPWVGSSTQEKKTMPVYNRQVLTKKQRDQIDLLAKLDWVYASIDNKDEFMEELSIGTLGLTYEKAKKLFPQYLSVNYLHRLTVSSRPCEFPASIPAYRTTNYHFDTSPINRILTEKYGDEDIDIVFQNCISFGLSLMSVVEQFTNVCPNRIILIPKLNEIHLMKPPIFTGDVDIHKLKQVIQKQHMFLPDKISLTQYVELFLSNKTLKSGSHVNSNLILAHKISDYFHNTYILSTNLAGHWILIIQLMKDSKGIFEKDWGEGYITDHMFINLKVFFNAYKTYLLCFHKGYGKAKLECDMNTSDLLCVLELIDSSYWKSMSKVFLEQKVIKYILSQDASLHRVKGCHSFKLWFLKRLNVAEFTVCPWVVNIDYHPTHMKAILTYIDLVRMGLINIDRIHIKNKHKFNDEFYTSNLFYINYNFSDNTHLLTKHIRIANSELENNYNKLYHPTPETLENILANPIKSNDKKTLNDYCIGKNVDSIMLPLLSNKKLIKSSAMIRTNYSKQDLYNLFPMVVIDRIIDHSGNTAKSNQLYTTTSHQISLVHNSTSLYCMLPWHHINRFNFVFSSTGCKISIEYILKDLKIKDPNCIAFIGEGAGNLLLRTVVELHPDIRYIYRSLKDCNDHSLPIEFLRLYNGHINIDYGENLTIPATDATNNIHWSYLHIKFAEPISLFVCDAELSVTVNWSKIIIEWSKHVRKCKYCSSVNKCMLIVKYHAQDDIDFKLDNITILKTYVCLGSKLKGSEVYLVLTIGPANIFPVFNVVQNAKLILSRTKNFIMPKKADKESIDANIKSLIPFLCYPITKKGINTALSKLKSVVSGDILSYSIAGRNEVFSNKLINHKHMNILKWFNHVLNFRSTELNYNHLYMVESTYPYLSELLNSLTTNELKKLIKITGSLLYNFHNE
Sequence of recombinant RSV complex (P03421 whole entry, further chain): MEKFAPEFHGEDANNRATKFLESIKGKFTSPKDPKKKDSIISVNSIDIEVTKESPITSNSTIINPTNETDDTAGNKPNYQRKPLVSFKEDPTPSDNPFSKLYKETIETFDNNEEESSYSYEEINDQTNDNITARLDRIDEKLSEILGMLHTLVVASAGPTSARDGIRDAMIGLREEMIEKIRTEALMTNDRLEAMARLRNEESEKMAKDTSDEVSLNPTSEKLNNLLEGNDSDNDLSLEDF
Outline: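 Inhibition measured as reduced incorporation of radiolabel into RNA products, detected by scintillation counting. Reactions: recombinant RSV complex (10 nM), RNA oligonucleotides, Tris-HCl pH 7.5, 6 mM MgCl2, inhibitor titration, 2 h at 30 °C, EDTA stop.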

RSV replicon = test: microbe, parasite or virus in culture; assay type: cell-based; conditions: human respiratory syncytial virus, read-out: EC50, the concentration of the drug required for reducing RSV replicon RNA by 50%
[3] = HEp-2, 120 h, read-out: 50% effective concentration (EC50), HEp-2 cells infected with RSV long strain, 5 days, CCK-8 readout
[4] = 120 h, read-out: 50% effective concentration (EC50), HEp-2 cells infected with RSV long strain, 5 days, CCK-8 readout

Compound	EC50 [1, 3] [nM]	CC50 at 5 days [2] [nM]	IC50 (recombinant RSV complex) [nM]	EC50 (RSV replicon) [nM]	EC50 [1, 4] [nM]
COc1cc(C(=O)NCC(O)(CO)c2ccc(OC)c(-c3ccc(F)c(Cl)c3)n2)ccc1OC1CC1 (stereo not shown) [Compound 384]	< 1000	10000 to 100000	< 1000	< 1000	
COc1cc(C(=O)NCC(=O)c2cc3c(c(-c4ccc(F)c(Cl)c4)n2)OCC=C3)ccc1OCCF [Compound 302]	1000 to 50000	> 100000	< 1000	< 1000	
COc1cc(C(=O)NCC(O)(c2ccc(OC)c(-c3ccc(F)c(Cl)c3)n2)C(F)(F)F)ccc1OCC(C)=O (stereo not shown) [Compound 362]	< 1000	10000 to 100000	< 1000	< 1000	
COc1cc(C(=O)NCC(O)(c2cc(C(C)(C)NCC(=O)O)cc(-c3ccc(F)c(Cl)c3)n2)C(F)(F)F)ccc1OC1CC1 (stereo not shown) [Compound 515]	< 1000	10000 to 100000	< 1000	< 1000	
COc1cc(C(=O)NCC(O)(c2cc3c(c(-c4ccc(Cl)cc4)n2)OCC3(C)N)C(F)(F)F)ccc1OCCO (stereo not shown) [Compound 640]		10000 to 100000	< 1000	< 1000	< 1000
COc1cc(C(=O)NCC(O)(c2cc3c(c(-c4ccc(C(F)(F)F)cc4)n2)OCC3(C)N)C(F)(F)F)ccc1OCCO (stereo not shown) [Compound 645]	< 1000	10000 to 100000	< 1000	< 1000	
COc1cc(C(=O)NCC(C)(O)c2cc(C(C)(C)N)cc(-c3ccc(F)c(Cl)c3)n2)ccc1OC1CC1 (stereo not shown) [Compound 460]		10000 to 100000	< 1000	< 1000	< 1000
COc1cc(C(=O)NCC(O)(c2cc(C(N)CO)cc(-c3ccc(F)cc3)n2)C(F)(F)F)ccc1OC1CC1 (stereo not shown) [Compound 529]	< 1000	10000 to 100000	< 1000	< 1000	
CNC(C)(C)c1cc(-c2ccc(F)c(Cl)c2)nc(C(O)(CNC(=O)c2cc(OC)c3ncccc3c2)C(F)(F)F)c1 (stereo not shown) [Compound 488]	< 1000	10000 to 100000	< 1000	< 1000	
COc1cc(C(=O)NC[C@@](O)(c2cc(C(C)(C)N)cc(-c3ccc(F)c(Cl)c3)n2)C(F)(F)F)ccc1OCC(N)=O [Compound 547]	< 1000	10000 to 100000	< 1000	< 1000	
CNC(C)(C)c1cc(-c2ccc(F)c(Cl)c2)nc(C(O)(CNC(=O)c2ccc(OCCO)c(OC)c2)C(F)(F)F)c1 (stereo not shown) [Compound 491]	< 1000	10000 to 100000	< 1000	< 1000	
COc1cc(C(=O)NCC(C)(O)c2ccc(OC)c(-c3ccc(F)c(Cl)c3)n2)ccc1OCCO (racemic) [Compound 120]		> 100000	< 1000	< 1000	< 1000
COc1cc(C(=O)NCC(O)(c2cc3c(c(-c4ccc(F)c(Cl)c4)n2)OCC3N)C(F)(F)F)ccc1OC1CC1 (stereo not shown) [Compound 525]	< 1000	10000 to 100000	< 1000	< 1000	
COc1cc(C(=O)NCC(O)(c2cc(C(C)(C)NCCO)cc(-c3ccc(F)c(Cl)c3)n2)C(F)(F)F)ccc1OC1CC1 (stereo not shown) [Compound 502]	< 1000	10000 to 100000	< 1000	< 1000	
COc1cc(C(=O)NCC(O)(c2ccc(OC)c(-c3ccc(F)c(Cl)c3)n2)C(F)(F)F)ccc1OC1CC(F)C1 (stereo not shown) [Compound 470]		> 100000	< 1000	< 1000	< 1000
COc1cc(C(=O)NCC(O)(Cn2ccnn2)c2ccc(OC)c(-c3ccc(F)c(Cl)c3)n2)ccc1OCCO (stereo not shown) [Compound 192]	< 1000	> 100000	< 1000	< 1000	

Compound	EC50 [1, 3] [nM]	CC50 at 5 days [2] [nM]	IC50 (recombinant RSV complex) [nM]	EC50 (RSV replicon) [nM]	EC50 [1, 4] [nM]
COc1cc(C(=O)NCC(O)(c2ccc(OC)c(-c3ccc(F)c(Cl)c3)n2)C(F)(F)F)ccc1OC1CC1(F)F (stereo not shown) [Compound 358]	< 1000	> 100000	< 1000	< 1000	
COc1cc(C(=O)NC[C@](O)(c2cc(C(C)(C)N)cc(-c3ccc(F)c(Cl)c3)n2)C(F)(F)F)ccc1OCC(N)=O [Compound 548]	< 1000	10000 to 100000	< 1000	< 1000	
COc1cc(C(=O)NCC(O)(c2cc(C(C)(C)NCCF)cc(-c3ccc(F)c(Cl)c3)n2)C(F)(F)F)ccc1OC1CC1 (stereo not shown) [Compound 356]	< 1000	10000 to 100000	< 1000	< 1000	
COc1cc(C(=O)NCC(O)(c2cc3c(c(-c4ccc(F)c(Cl)c4)n2)NCC3(C)C)C(F)(F)F)ccc1OC1CC1 (stereo not shown) [Compound 335]	< 1000	> 100000	< 1000	< 1000	
COc1cc(C(=O)NCC(O)(c2ccc(OC)c(-c3ccc(F)c(Cl)c3)n2)C(C)(C)C)ccc1OCCF (stereo not shown) [Compound 313]	1000 to 50000	10000 to 100000	< 10000	1000 to 50000	
COc1cc(C(=O)NC[C@](O)(c2cc3c(c(-c4ccc(F)cc4)n2)OCC3(C)CN)C(F)(F)F)ccc1OCCO (stereo partly shown) [Compound 633b]	< 1000	10000 to 100000	< 1000	< 1000	
COc1cc(C(=O)NCC(O)(c2cc(C(C)(N)CF)cc(-c3ccc(F)cc3)n2)C(F)(F)F)ccc1OCC(N)=O (stereo not shown) [Compound 615]	< 1000	> 100000	< 1000	< 1000	
CCOc1ccc(C(=O)NCC(C)(O)c2ccc(OC)c(-c3c[nH]c4c(F)cccc34)n2)cc1OC (racemic) [Compound 116]	< 1000	10000 to 100000	< 1000	< 1000	
COCC(C)(N)c1cc(-c2ccc(F)c(Cl)c2)nc(C(O)(CNC(=O)c2ccc(OC3CC3)c(OC)c2)C(F)(F)F)c1 (stereo not shown) [Compound 535]	< 1000	10000 to 100000	< 1000	< 1000	
COc1cc(C(=O)NCC(O)(c2cc([C@@]3(C)CCN3)cc(-c3ccc(F)c(Cl)c3)n2)C(F)(F)F)ccc1OC1CC1 (stereo partly shown) [Compound 563]	< 1000	10000 to 100000	< 1000	< 1000	
COc1cc(C(=O)NCC(C)(O)c2ccc(OC)c(-c3c[nH]c4c(F)cccc34)n2)ccc1OCC(N)=O (stereo not shown) [Compound 419]	< 1000	> 100000	< 1000	< 1000	
COc1cc(C(=O)NCC(O)(c2cc3c(c(-c4ccc(F)c(Cl)c4)n2)OCC3(C)C)C(F)(F)F)ccc1OC1CC1 (stereo not shown) [Compound 209]	< 1000	> 100000	< 1000	< 1000	
CNc1cc(-c2ccc(F)c(Cl)c2)nc(C(O)(CNC(=O)c2ccc(OC3CC3)c(OC)c2)C(F)(F)F)c1 (stereo not shown) [Compound 448]	< 1000	10000 to 100000	< 1000	< 1000	
COc1cc(C(=O)NCC(O)(c2cc(C(C)(N)CO)cc(-c3ccc(F)c(Cl)c3)n2)C(F)(F)F)ccc1OC1CC1 (stereo not shown) [Compound 533]	< 1000	10000 to 100000	< 1000	< 1000	
CCOc1ccc(C(=O)NCC(O)(c2cc3c(c(-c4ccc(F)c(Cl)c4)n2)OCC3(C)N)C(F)(F)F)cc1OC (stereo not shown) [Compound 498]	< 1000	10000 to 100000	< 1000	< 1000	
